# Target: T1, human TRH-DE (Homo sapiens, UniProt Q9UKU6)
# T1 construct: expressed in transfected cells; host or cells: Expi 293 cells (transient expression), membrane fraction
# T1 sequence (Q9UKU6 1-1069): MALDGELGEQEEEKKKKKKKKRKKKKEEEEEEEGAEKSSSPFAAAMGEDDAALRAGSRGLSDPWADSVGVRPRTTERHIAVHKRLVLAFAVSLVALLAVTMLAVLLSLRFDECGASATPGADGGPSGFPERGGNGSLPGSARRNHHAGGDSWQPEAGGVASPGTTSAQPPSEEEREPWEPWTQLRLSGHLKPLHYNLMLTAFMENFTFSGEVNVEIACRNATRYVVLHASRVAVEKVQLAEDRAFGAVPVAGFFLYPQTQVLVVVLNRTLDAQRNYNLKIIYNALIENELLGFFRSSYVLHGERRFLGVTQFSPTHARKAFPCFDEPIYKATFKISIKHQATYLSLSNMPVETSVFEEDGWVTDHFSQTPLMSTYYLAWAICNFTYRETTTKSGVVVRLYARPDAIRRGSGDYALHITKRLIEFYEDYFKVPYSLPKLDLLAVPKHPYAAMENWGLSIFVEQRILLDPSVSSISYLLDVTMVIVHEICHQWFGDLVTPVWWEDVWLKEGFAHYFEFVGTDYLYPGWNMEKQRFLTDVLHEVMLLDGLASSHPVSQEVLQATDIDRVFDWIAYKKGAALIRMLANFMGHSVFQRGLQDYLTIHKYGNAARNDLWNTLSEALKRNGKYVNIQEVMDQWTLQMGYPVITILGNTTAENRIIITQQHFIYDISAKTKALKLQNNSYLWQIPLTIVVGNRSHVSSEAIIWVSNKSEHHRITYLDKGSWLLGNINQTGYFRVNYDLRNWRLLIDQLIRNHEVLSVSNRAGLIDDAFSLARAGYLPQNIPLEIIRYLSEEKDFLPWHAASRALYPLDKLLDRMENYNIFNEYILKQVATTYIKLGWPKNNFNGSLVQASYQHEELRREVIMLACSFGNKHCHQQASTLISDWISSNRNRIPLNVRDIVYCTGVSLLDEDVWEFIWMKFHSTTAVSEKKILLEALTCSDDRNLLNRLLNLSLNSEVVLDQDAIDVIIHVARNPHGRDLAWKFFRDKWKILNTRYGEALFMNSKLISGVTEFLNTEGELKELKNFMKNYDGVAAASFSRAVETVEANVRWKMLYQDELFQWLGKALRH
# Assay: TRH-DE inhibition test (RapidFire MS measurement of product Cyclo (His-Pro))
# Type: biochemical
# Conditions: membrane fraction of Expi 293 cells expressing human TRH-DE; 10 μM TRH substrate; room temperature, 2 hours; 16-point concentration test
# Procedure, shortened: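 Membrane fraction from Expi 293 cells transiently expressing human TRH-DE, at 4 μg/ml in phosphate buffer pH 7.4 with 200 μM bacitracin, reacted with compound and 10 μM substrate for 2 h at room temperature. Cyclo(His-Pro) measured by RapidFire MS against an isotope internal standard. IC50 from 16-point curves.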
row,SMILES,IC50
1,C[C@@H]1COc2cc(N(C)CC3CCCCC3)ncc2C(=O)N1C1CC2(C1)CN(S(=O)(=O)c1ccccc1F)C2 [Example 138],1 nM
2,C[C@@H]1COc2cc(N(C)Cc3ccccc3)ncc2C(=O)N1C1CC2(C1)CN(S(=O)(=O)c1ccccc1F)C2 [Example 139],2 nM
3,C[C@@H]1COc2cc(Nc3ccc(F)cc3)ncc2C(=O)N1C1CC2(C1)CN(S(=O)(=O)c1ccccc1F)C2 [Example 140],1 nM
4,C[C@@H]1COc2cc(N(C)c3ccc(F)cc3)ncc2C(=O)N1C1CC2(C1)CN(S(=O)(=O)c1ccccc1F)C2 [Example 141],1 nM
5,C[C@@H]1COc2cc(N3CCCC3)ncc2C(=O)N1C1CC2(C1)CN(S(=O)(=O)c1ccccc1F)C2 [Example 142],1 nM
6,C[C@@H]1COc2cc(N3CC[C@H](F)C3)ncc2C(=O)N1C1CC2(C1)CN(S(=O)(=O)c1ccccc1F)C2 [Example 143],1 nM
7,C[C@@H]1COc2cc(N3CC[C@@H](F)C3)ncc2C(=O)N1C1CC2(C1)CN(S(=O)(=O)c1ccccc1F)C2 [Example 144],1 nM
8,C[C@@H]1COc2cc(N3CC(F)(F)C(F)(F)C3)ncc2C(=O)N1C1CC2(C1)CN(S(=O)(=O)c1ccccc1F)C2 [Example 147],1 nM
9,C[C@@H]1COc2cc(N3C[C@H]4C[C@H]4C3)ncc2C(=O)N1C1CC2(C1)CN(S(=O)(=O)c1ccccc1F)C2 [Example 148],< 1 nM
10,C[C@@H]1COc2cc(N3CCCCC3)ncc2C(=O)N1C1CC2(C1)CN(S(=O)(=O)c1ccccc1F)C2 [Example 149],1 nM
11,C[C@@H]1COc2cc(N3CCCC[C@@H]3C)ncc2C(=O)N1C1CC2(C1)CN(S(=O)(=O)c1ccccc1F)C2 [Example 150],1 nM
12,C[C@@H]1CCCCN1c1cc2c(cn1)C(=O)N(C1CC3(C1)CN(S(=O)(=O)c1ccccc1F)C3)[C@H](C)CO2 [Example 151],1 nM
13,CC1CCN(c2cc3c(cn2)C(=O)N(C2CC4(C2)CN(S(=O)(=O)c2ccccc2F)C4)[C@H](C)CO3)CC1 [Example 153],1 nM
14,COC1CCN(c2cc3c(cn2)C(=O)N(C2CC4(C2)CN(S(=O)(=O)c2ccccc2F)C4)[C@H](C)CO3)CC1 [Example 154],2 nM
15,C[C@@H]1COc2cc(N3CCC(F)CC3)ncc2C(=O)N1C1CC2(C1)CN(S(=O)(=O)c1ccccc1F)C2 [Example 155],1 nM
16,C[C@@H]1COc2cc(N3CCC(F)(F)CC3)ncc2C(=O)N1C1CC2(C1)CN(S(=O)(=O)c1ccccc1F)C2 [Example 156],2 nM
17,C[C@@H]1COc2cc(N3CCCC(F)(F)C3)ncc2C(=O)N1C1CC2(C1)CN(S(=O)(=O)c1ccccc1F)C2 [Example 157],1 nM
18,C[C@@H]1COc2cc(N3CCN(C)CC3)ncc2C(=O)N1C1CC2(C1)CN(S(=O)(=O)c1ccccc1F)C2 [Example 158],6 nM
19,C[C@@H]1COc2cc(N3CCCCCC3)ncc2C(=O)N1C1CC2(C1)CN(S(=O)(=O)c1ccccc1F)C2 [Example 159],1 nM
20,C[C@@H]1COc2cc(N3CCCOCC3)ncc2C(=O)N1C1CC2(C1)CN(S(=O)(=O)c1ccccc1F)C2 [Example 160],1 nM
21,C[C@@H]1CNc2nc(N3C[C@H]4C[C@H]4C3)ccc2C(=O)N1C1CC2(C1)CN(S(=O)(=O)c1ccccc1F)C2 [Example 161],1 nM
22,"C[C@@H]1CNc2nc(N3CC[C@H](F)C3)ccc2C(=O)N1C1CC2(C1)CN(S(=O)(=O)c1ccccc1F)C2 [Example 162, (3R)-4-[2-(2-fluorophenyl)sulfonyl-2-azaspiro[3.3]heptan-6-yl]-8-[(3S)-3-fluoropyrrolidin-1-yl]-3-methyl-2,3-dihydro-H-pyrido[2,3-e][1,4]diazepin-5-one]",2 nM
23,"COc1ccc2c(n1)OC[C@@H](C)N(C1CC3(C1)CN(S(=O)(=O)c1ccccc1F)C3)C2=O [Example 163, (3R)-4-[2-(2-fluorophenyl)sulfonyl-2-azaspiro[3.3]heptan-6-yl]-8-methoxy-3-methyl-2,3-dihydropyrido[3,2-f][1,4]oxazepin-5-one]",8 nM
24,COc1cc2c(cn1)C(=O)N(C1CC3(C1)CN(S(=O)(=O)c1ccccc1F)C3)[C@H](C)CO2 [Example 165],2 nM
25,COc1cnc2c(n1)OC[C@@H](C)N(C1CC3(C1)CN(S(=O)(=O)c1ccccc1F)C3)C2=O [Example 166],5 nM

row,SMILES,IC50
1,"COc1nc2c(cc1F)C(=O)N(C1CC3(C1)CN(S(=O)(=O)c1ccccc1F)C3)[C@H](C)CO2 [Example 167, (3R)-7-fluoro-4-[2-(2-fluorophenyl)sulfonyl-2-azaspiro[3.3]heptan-6-yl]-8-methoxy-3-methyl-2,3-dihydropyrido[3,2-f][1,4]oxazepin-5-one]",16 nM
2,C[C@@H]1COc2nc(N3CC[C@H](F)C3)ncc2C(=O)N1C1CC2(C1)CN(S(=O)(=O)c1ccccc1F)C2 [Example 169],1 nM
3,"C[C@@H]1COc2c(cnn2C)C(=O)N1C1CC2(C1)CN(S(=O)(=O)c1ccccc1F)C2 [Example 170, (6R)-5-[2-(2-fluorophenyl)sulfonyl-2-azaspiro[3.3]heptan-6-yl]-1,6-dimethyl-6,7-dihydropyrazolo[4,3-f][1,4]oxazepin-4-one]",7 nM
4,C[C@@H]1COc2ncc(Br)cc2C(=O)N1C1CC2(C1)CN(S(=O)(=O)c1ccccc1F)C2 [Example 171],7 nM
5,C[C@@H]1CCN2CCOC[C@@H]2C(=O)N1C1CC2(C1)CN(S(=O)(=O)c1ccccc1F)C2 [Example 172],110 nM
6,Cc1nc2c(s1)C(=O)N(C1CC3(C1)CN(S(=O)(=O)c1ccccc1F)C3)[C@H](C)CO2 [Example 175],12 nM
7,C[C@@H]1COc2nc(C(F)F)sc2C(=O)N1C1CC2(C1)CN(S(=O)(=O)c1ccccc1F)C2 [Example 176],13 nM
8,C[C@@H]1COc2nc(C(C)(F)F)sc2C(=O)N1C1CC2(C1)CN(S(=O)(=O)c1ccccc1F)C2 [Example 178],12 nM
9,C[C@@H]1COc2nc(C3CC3)sc2C(=O)N1C1CC2(C1)CN(S(=O)(=O)c1ccccc1F)C2 [Example 180],4 nM
10,C[C@@H]1COc2nc(C3(F)CC3)sc2C(=O)N1C1CC2(C1)CN(S(=O)(=O)c1ccccc1F)C2 [Example 181],6 nM
11,C[C@H]1COc2nc(C3(F)CC3)sc2C(=O)N1C1CC2(C1)CN(S(=O)(=O)c1ccccc1F)C2 [Example 182],154 nM
12,C[C@@H]1COc2nc(C3(C(F)(F)F)CC3)sc2C(=O)N1C1CC2(C1)CN(S(=O)(=O)c1ccccc1F)C2 [Example 183],5 nM
13,Cc1cc2n(n1)CC[C@@H](C)N(C1CC3(C1)CN(S(=O)(=O)c1ccccc1F)C3)C2=O [Example 184],16 nM
14,Cc1nn2c(c1C)C(=O)N(C1CC3(C1)CN(S(=O)(=O)c1ccccc1F)C3)[C@H](C)CC2 [Example 185],24 nM
15,C[C@@H]1CCn2nc(Cl)cc2C(=O)N1C1CC2(C1)CN(S(=O)(=O)c1ccccc1F)C2 [Example 186],21 nM
16,C[C@@H]1CCn2nc(C(C)(F)F)cc2C(=O)N1C1CC2(C1)CN(S(=O)(=O)c1ccccc1F)C2 [Example 187],20 nM
17,C[C@@H]1CCn2nc(C3CC3)cc2C(=O)N1C1CC2(C1)CN(S(=O)(=O)c1ccccc1F)C2 [Example 188],8 nM
18,C[C@H]1CCn2nc(C3CC3)cc2C(=O)N1C1CC2(C1)CN(S(=O)(=O)c1ccccc1F)C2 [Example 189],68 nM
19,C[C@@H]1CCn2nc(C3(F)CC3)cc2C(=O)N1C1CC2(C1)CN(S(=O)(=O)c1ccccc1F)C2 [Example 190],11 nM
20,C[C@H]1CCn2nc(C3(F)CC3)cc2C(=O)N1C1CC2(C1)CN(S(=O)(=O)c1ccccc1F)C2 [Example 191],86 nM
21,C[C@@H]1CCn2nc(C3(C(F)(F)F)CC3)cc2C(=O)N1C1CC2(C1)CN(S(=O)(=O)c1ccccc1F)C2 [Example 192],9 nM
22,C[C@@H]1CCn2nc(C(F)(F)F)cc2C(=O)N1C1CC2(C1)CN(S(=O)(=O)c1ccccc1F)C2 [Example 193],25 nM
23,C[C@@H]1CCn2ncc(Cl)c2C(=O)N1C1CC2(C1)CN(S(=O)(=O)c1ccccc1F)C2 [Example 194],36 nM
24,C[C@@H]1CCn2ncc(Br)c2C(=O)N1C1CC2(C1)CN(S(=O)(=O)c1ccccc1F)C2 [Example 195],35 nM
25,C[C@@H]1CCn2nc(F)c(Br)c2C(=O)N1C1CC2(C1)CN(S(=O)(=O)c1ccccc1F)C2 [Example 196],15 nM

# Reference: patent publication US20260132127A1, “NOVEL SPIRO COMPOUND” (MITSUBISHI TANABE PHARMA CORPORATION, priority 2021, published 2026)
